For orientation: IC50 means the midpoint of a concentration-inhibition curve. A lower IC50 goes with higher potency.

The target of this test is T1, Cholecystokinin receptor type A (Rattus norvegicus, UniProt P30551).
T1 sequence (P30551 whole entry): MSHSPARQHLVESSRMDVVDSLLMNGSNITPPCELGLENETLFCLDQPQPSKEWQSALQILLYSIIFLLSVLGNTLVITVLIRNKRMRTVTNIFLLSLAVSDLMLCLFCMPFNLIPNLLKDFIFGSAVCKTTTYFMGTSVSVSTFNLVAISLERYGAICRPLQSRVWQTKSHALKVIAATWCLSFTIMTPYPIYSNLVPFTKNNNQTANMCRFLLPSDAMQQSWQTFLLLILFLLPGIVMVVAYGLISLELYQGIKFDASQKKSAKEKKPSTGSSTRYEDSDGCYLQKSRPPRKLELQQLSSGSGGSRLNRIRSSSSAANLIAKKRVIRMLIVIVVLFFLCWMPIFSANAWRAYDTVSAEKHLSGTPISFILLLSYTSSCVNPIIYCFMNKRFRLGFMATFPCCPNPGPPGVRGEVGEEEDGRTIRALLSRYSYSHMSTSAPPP
Kind of test: In vitro test for inhibition of [125I]CCK binding to Cholecystokinin type A receptor from rat pancreatic tissues was determined.
Take `Cc1cccc(NC(=O)N[C@@H]2N=C(c3ccccc3)c3ccccc3N(C)C2=O)c1` [L-365260]: the IC50 came to 736 nM. That is a sub-micromolar value.

`Cc1cccc(NC(=O)NC2N=C(C3CCCC3)c3ccccc3N(C)C2=O)c1` (stereo not drawn) yielded an IC50 of 27.1 nM.

The compound `Cc1cccc(NC(=O)NC2N=C(C3CCC3)c3ccccc3N(C)C2=O)c1` (stereo not drawn) returned a half-maximal inhibitory concentration (IC50) of 402 nM. This IC50 lies about 15-fold higher than the previous one.

The record behind these values is ChEMBL document CHEMBL1127104, “L-708,474: The C5-cyclohexyl analogue of L-365,260, a selective high affinity ligand for the CCKB/gastrin receptor” (Bioorg Med Chem Lett, 1993).
